Experimental data from ChEMBL document CHEMBL4373747 (ACS Med Chem Lett, 2020).

Tests used:
MOLM-13 = test: Cytotoxicity against human MOLM13 cells assessed as reduction in cell viability incubated for 72 hrs by cell-titer blue assay; format: functional, cell-based; conditions: MOLM-13, 72 h
MDA-MB-468 = test: Cytotoxicity against human MDA-MB-468 cells assessed as reduction in cell viability incubated for 72 hrs by cell-titer blue assay; format: functional, cell-based; conditions: MDA-MB-468, 72 h
Histone deacetylase 2 = Histone deacetylase 2 (Homo sapiens, UniProt Q92769); test: Inhibition of recombinant full length human HDAC2 expressed in baculovirus infected Sf9 cells using FAM-RHKK-Ac as substrate incubated for 17 hrs by electrophoretic mobility shift assay
Histone deacetylase 4 = Histone deacetylase 4 (Homo sapiens, UniProt P56524); test: Inhibition of recombinant full length human HDAC4 expressed in baculovirus infected Sf9 cells using FAM-RHKK-TFAc as substrate incubated for 1.5 hrs by electrophoretic mobility shift assay
Histone deacetylase 9 = Histone deacetylase 9 (Homo sapiens, UniProt Q9UKV0); test: Inhibition of recombinant human HDAC9 (604-1066 residues) expressed in baculovirus infected Sf9 cells using FAM-RHKK-TFAc as substrate incubated for 3 hrs by electrophoretic mobility shift assay
[1] = target: T1, Polyamine deacetylase HDAC10 (Homo sapiens, UniProt Q969S8); test: Inhibition of recombinant full length human HDAC10 expressed in baculovirus infected Sf9 cells using FAM-RHKK-Ac as substrate incubated for 17 hrs by electrophoretic mobility shift assay
T1 sequence (Q969S8 whole entry): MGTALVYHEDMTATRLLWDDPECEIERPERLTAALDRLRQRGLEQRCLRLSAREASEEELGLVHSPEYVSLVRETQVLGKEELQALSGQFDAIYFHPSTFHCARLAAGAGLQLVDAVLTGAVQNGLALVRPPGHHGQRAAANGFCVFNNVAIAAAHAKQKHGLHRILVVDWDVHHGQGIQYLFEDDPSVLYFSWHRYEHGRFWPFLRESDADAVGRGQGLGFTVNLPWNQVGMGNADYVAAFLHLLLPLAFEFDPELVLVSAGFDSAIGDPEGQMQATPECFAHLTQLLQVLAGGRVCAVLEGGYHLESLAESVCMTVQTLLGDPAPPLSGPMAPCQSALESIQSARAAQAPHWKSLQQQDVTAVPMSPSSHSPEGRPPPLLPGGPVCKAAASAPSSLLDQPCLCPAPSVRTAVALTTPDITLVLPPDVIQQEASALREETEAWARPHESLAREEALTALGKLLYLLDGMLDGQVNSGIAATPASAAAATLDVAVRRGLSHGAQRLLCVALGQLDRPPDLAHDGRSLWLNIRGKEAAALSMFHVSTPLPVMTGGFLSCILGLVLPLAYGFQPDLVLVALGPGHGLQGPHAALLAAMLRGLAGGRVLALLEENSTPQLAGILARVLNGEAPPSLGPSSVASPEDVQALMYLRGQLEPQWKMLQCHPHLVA

MV4-11 [2] = test: Induction of apoptosis in human MV4-11 cells assessed as late apoptotic cells at 0.25 uM incubated for 18 hrs by annexin V FITC and PI based flow cytometry (reference value: 9.2 to 9.63 %); format: functional
MV4-11 [3] = test: Induction of apoptosis in human MV4-11 cells assessed as late apoptotic cells at 0.5 uM incubated for 18 hrs by annexin V FITC and PI based flow cytometry (reference value: 9.2 to 9.63 %); format: functional
MV4-11 [4] = test: Induction of apoptosis in human MV4-11 cells assessed as viable cells at 4 uM incubated for 18 hrs by annexin V FITC and PI based flow cytometry (reference value: 53.01 to 53.07 %); format: functional; conditions: Homo sapiens, MV4-11, 18 h; read-out: Activity
[5] = Intrinsic clearance in ICR/CD1 mouse hepatocytes at 1 uM measured upto 120 mins by LCMS analysis; format: ADME, cell-based, Hepatocyte; conditions: 2 h
[6] = target: T2, Protein deacetylase HDAC6 (Homo sapiens) (UniProt Q9UBN7); test: Inhibition of HDAC6 in human MV4-11 cells assessed as increase in acetylated alpha-tubulin incubated for 6 hrs by Western blot analysis; format: cell-based
T2 sequence (whole entry): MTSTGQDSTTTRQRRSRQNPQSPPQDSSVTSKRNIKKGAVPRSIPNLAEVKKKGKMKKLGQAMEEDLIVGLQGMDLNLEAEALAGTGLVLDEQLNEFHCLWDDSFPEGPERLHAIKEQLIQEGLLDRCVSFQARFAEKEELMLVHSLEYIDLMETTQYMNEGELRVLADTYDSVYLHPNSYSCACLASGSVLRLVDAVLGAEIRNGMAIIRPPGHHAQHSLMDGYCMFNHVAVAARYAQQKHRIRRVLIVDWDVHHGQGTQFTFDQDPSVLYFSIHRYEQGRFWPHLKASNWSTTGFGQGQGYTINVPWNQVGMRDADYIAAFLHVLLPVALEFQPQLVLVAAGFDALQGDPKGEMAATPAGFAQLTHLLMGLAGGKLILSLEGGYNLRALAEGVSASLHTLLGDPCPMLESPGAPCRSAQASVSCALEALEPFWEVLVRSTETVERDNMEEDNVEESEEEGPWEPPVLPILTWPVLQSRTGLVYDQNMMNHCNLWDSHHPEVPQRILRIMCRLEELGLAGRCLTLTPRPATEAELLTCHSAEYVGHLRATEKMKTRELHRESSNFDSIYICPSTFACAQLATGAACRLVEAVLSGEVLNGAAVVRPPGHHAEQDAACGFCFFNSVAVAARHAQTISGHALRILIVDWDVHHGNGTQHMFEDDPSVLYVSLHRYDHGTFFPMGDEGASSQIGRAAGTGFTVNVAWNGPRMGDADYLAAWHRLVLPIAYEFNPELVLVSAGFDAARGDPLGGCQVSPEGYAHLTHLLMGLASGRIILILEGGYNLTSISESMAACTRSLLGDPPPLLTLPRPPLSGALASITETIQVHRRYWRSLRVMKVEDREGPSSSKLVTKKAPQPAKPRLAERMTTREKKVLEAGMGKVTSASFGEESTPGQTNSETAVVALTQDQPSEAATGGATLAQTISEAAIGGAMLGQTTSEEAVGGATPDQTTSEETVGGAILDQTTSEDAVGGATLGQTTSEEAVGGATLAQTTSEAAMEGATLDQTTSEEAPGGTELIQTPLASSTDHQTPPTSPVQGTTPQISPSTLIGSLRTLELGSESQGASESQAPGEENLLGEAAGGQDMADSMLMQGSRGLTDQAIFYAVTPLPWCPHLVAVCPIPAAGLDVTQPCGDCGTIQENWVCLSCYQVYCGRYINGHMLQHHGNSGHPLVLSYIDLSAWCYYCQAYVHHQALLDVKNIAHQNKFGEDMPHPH

[7] = Tmax in NSG mouse; format: ADME; conditions: in vivo

Sequence of Histone deacetylase 4 (P56524 whole entry, the tested form may be a part): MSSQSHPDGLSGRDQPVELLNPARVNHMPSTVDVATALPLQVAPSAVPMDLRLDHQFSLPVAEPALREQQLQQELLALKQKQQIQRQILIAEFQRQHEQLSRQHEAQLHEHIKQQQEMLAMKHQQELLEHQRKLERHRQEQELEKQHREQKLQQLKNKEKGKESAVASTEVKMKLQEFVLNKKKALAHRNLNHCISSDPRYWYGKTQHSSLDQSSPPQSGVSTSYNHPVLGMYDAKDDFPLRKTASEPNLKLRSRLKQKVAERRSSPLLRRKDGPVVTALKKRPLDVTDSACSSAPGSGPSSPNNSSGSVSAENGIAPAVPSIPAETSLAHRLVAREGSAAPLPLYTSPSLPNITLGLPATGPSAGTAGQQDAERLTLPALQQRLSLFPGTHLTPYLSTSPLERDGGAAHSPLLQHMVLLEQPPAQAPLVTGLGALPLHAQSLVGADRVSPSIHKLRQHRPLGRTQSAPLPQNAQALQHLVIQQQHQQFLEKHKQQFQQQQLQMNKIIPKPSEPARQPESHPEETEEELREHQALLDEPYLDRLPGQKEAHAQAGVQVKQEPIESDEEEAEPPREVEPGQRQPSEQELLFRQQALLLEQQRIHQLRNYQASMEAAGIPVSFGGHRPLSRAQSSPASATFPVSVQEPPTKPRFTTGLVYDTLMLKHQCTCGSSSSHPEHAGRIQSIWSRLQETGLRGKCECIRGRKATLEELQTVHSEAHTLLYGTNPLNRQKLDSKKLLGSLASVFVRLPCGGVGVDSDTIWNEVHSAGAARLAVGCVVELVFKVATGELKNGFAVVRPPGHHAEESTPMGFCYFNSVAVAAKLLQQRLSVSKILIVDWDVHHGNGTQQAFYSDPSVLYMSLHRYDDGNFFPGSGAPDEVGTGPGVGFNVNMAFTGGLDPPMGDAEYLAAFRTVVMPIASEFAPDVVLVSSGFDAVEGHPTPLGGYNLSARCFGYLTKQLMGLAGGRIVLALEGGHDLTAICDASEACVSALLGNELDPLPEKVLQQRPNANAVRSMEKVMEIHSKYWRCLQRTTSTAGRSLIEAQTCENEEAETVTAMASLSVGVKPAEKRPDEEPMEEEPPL
Sequence of Histone deacetylase 2 (Q92769 whole entry): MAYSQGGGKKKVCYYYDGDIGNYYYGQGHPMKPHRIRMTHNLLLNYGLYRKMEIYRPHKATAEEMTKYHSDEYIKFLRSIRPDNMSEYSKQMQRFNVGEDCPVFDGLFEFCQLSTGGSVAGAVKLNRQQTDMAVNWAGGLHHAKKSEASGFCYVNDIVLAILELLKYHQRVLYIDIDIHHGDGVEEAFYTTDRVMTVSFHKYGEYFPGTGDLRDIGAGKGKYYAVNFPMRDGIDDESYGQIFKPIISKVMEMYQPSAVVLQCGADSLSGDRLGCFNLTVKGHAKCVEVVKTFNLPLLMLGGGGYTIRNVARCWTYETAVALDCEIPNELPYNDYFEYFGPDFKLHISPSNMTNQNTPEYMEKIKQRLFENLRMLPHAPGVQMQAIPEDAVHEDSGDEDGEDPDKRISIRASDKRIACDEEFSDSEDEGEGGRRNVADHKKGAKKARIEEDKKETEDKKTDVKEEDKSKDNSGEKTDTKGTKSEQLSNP
Sequence of Histone deacetylase 9 (Q9UKV0 whole entry, the tested form may be a part): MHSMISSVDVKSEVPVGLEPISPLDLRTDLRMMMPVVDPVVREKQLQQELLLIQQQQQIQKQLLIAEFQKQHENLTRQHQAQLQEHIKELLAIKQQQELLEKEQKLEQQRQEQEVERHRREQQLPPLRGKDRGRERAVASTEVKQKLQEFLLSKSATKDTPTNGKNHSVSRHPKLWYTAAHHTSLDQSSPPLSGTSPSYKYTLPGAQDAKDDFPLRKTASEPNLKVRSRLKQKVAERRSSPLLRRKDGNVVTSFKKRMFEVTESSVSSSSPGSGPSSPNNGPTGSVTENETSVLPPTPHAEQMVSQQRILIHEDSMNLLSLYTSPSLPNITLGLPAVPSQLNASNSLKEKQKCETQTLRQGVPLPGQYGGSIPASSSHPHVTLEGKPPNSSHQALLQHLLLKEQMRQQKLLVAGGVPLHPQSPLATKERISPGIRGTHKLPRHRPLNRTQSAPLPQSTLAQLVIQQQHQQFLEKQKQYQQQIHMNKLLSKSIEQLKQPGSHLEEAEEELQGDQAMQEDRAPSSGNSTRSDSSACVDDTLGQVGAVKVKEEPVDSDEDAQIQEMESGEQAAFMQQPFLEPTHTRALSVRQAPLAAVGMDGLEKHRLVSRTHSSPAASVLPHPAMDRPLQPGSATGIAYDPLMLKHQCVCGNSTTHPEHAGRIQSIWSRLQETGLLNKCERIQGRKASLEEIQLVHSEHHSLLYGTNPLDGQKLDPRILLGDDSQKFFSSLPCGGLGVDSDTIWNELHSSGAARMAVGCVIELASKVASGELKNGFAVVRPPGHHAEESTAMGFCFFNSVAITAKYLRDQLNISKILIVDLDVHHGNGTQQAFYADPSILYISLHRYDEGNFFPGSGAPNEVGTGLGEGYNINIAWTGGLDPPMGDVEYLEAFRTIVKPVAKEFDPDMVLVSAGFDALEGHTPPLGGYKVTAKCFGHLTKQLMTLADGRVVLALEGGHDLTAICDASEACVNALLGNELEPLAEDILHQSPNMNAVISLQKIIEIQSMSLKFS

IC50 (Histone deacetylase 2): > 1000 nM
IC50 (Histone deacetylase 4): > 1000 nM
IC50 (Histone deacetylase 9): > 1000 nM
IC50 [1]: 899 nM
CLH [5]: 49.1 µL/min
inhibition [6]: Dose-dependent effect
Tmax [7]: 8 h
Structure (SMILES): CC(C)(C)c1ccc(C(=O)Nc2ccc(C(=O)NO)cc2)cc1
IC50 (MOLM-13): 6000 nM
IC50 (MDA-MB-468): > 50000 nM
Activity (MV4-11 [2]): 8.74%
Activity (MV4-11 [3]): 11.7%
viability at 4 µM (MV4-11 [4]): 16.3%
